What follows are compounds tested against T1, human EP3 receptor (Homo sapiens, UniProt P43115) (assay: Cellular in vitro assay for determining EP3 receptor activity (human EP3 cell line, sulprostone-stimulated calcium luminescence)). Conditions: CHO cells expressing human EP3 and mitochondrial Clytin; antagonist mode, sulprostone at EC50; read-out: EP3 CHO mtCLY ANTAG IC50.
T1 construct: expressed in transfected cells; host or cells: CHO K1 (Chinese Hamster Ovary), stably co-transfected with Galpha16 and mitochondrial clytin
T1 sequence (P43115 1-390): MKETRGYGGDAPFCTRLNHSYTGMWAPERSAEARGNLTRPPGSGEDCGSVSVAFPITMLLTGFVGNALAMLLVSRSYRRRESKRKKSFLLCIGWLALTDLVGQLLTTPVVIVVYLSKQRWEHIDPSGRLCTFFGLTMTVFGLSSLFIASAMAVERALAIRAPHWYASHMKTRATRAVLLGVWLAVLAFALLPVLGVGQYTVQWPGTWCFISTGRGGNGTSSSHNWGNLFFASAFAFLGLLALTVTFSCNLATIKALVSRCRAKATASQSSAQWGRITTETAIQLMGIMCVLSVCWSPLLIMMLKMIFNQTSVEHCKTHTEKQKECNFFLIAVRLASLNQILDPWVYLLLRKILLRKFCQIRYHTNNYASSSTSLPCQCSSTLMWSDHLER
Assay type: cell-based
Summary of the method: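 Antagonist activity was measured as inhibition of the luminescent calcium signal elicited by EC50 sulprostone, following 10 min compound pretreatment. The cell line was recombinant CHO K1 co-expressing human EP3, Gα16 and the photoprotein Clytin, reconstituted with coelenterazine.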

SMILES	IC50
Cc1ccc(-c2cn3nc(C(=O)N[C@H](C)CO)c(C4CCC4)c3c(=O)[nH]2)cc1F [6-575]	1.95 nM
CC(C)(O)[C@@H](NC(=O)c1nn2cc(-c3ccc(C(F)(F)F)c(F)c3F)[nH]c(=O)c2c1C1CC1)c1ccc(F)cc1 [6-602]	5.65 nM
CC(C)(O)[C@@H](NC(=O)c1nn2cc(-c3ccc(Cl)c(F)c3)[nH]c(=O)c2c1C1CCC1)c1ccc(F)cc1 [6-572]	2.8 nM

Source: US20220324865A1 (Bayer Aktiengesellschaft, priority 2018, published 2022)
